Laboratory results as given in paper PMC7155212 (Journal of Enzyme Inhibition and Medicinal Chemistry, 2020).
Several values for one entry are separate records, joined by “and”; a condition that tells them apart may be missing. Equal entries are not always repeated. Where two headings read alike, the source gives them in different places.

What was measured:
[1] = In vitro antioxidant activity (DPPH radical scavenging); settings: DPPH free radical scavenging, 30 min at 37 °C, mean ± SD (n = 3)
Procedure: The assay provides an assessment of the antioxidant activity due to free radical scavenging by measuring hydrogen atom (or one electron) donating activity. DPPH is a purple stable free radical that is reduced to a yellow-coloured diphenylpicryl hydrazine by an antioxidant. The spectrophotometric assay was carried out as described by the literature method with a slight modification. 100 μL of a sample solution was added to 100 μL of DPPH solution. Following 30 min of incubation at 37 °C and protection from light, the absorbance at 517 nm was determined using a microplate reader. Each group was measured three times in parallel to average. IC50 values were calculated. The percentage of DPPH radical scavenging rate of the target compound is calculated as follows: DPPH free radical scavenging effect (%)=[A0 – (A1−A2)]/A0×100% where A0 is the absorbance of blank group; A1 is the absorbance of sample group; A2 is the absorbance of sample blank group.

AChE from electric eel = AChE from electric eel (Electrophorus electricus, UniProt O42275); experiment: biochemical; type: biochemical; settings: Ellman method, mean ± SD (n = 3)
Sequence of AChE from electric eel (O42275 24-633): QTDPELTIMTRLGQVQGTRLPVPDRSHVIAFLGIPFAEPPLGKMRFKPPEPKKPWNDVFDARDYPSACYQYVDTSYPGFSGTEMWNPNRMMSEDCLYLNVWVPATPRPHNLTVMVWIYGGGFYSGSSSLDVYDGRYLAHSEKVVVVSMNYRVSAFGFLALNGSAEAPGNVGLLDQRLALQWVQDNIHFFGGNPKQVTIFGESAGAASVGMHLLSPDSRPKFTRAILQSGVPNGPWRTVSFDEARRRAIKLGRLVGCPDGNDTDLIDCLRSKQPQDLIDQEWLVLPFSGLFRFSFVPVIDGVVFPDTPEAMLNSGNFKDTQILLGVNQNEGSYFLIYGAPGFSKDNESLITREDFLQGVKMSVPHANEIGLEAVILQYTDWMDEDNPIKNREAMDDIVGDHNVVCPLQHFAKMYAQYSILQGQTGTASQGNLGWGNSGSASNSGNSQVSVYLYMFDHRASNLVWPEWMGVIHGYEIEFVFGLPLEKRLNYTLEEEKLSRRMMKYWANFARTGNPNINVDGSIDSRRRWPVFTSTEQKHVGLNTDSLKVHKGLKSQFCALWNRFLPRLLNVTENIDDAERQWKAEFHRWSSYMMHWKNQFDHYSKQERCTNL
Procedure: (§1) The anticholinesterase activity of the 3-arylbenzofuranone compounds was determined by the method of Ellman et al.[16] with slight modifications. […] Acetylthiocholine iodide and butyrylthiocholine iodide were used as substrates respectively. 5,5′-Dithiobis(2-nitrobenzoic acid) (DTNB) was used as the chromophoric reagent. To a 96-well plate, 120 µL of phosphate buffer solution (0.1 M, pH = 8.0, PBS), 20 µL of DTNB (3.3 mM in 0.1 M PBS, pH = 8.0) were added sequentially, 20 µL AChE solution (0.2 U/mL in 0.1 M PBS, pH = 8.0), 20 µL of different concentrations of the sample solution, shaken well, and incubated at 37 °C for 5 min. Then, 20 µL of substrate (5 mM in 0.1 M PBS, pH = 8.0) were added, shaken well, and incubated at 37 °C for 20 min. […] BChE inhibitory activity was assessed similarly using butyrylthiocholine iodide as the substrate. The sample solution was set to five concentration gradients and the experiment was repeated three times. […] Cholinesterase inhibitory effect (%)=[A0−(A1−A2)]/A0×100% where A0 is the absorbance of blank group; A1 is the absorbance of sample group; A2 is the absorbance of sample blank group.

BChE from equine serum = BChE from equine serum (Equus caballus, UniProt P81908); experiment: biochemical; type: biochemical
Sequence of BChE from equine serum (P81908 whole entry): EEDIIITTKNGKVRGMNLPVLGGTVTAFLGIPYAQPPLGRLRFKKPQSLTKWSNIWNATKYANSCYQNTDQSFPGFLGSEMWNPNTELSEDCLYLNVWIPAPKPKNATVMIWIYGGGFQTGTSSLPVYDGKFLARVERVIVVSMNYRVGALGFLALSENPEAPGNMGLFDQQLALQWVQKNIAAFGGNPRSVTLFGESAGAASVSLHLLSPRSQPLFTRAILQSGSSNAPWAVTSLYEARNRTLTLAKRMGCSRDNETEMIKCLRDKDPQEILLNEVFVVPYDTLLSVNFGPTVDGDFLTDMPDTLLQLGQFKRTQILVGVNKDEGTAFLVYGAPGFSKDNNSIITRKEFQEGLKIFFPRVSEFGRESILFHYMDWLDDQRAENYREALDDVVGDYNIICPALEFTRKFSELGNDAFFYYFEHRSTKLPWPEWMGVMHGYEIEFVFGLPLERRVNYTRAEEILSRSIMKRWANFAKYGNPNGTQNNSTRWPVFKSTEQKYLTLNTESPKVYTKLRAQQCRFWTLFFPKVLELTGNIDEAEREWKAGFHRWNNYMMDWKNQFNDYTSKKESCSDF
Procedure: as §1

MAO-B = target: T1, MAO-B (Rattus norvegicus, UniProt P19643); experiment: In vitro MAO inhibitory activity (Holt method, crude enzyme from rat liver); type: biochemical, Wistar rat
T1 construct: The crude enzyme was extracted from the liver of 200–250 g of Wistar rats; from tissue; host or cells: liver of Wistar rats (crude enzyme)
T1 sequence (P19643 1-520): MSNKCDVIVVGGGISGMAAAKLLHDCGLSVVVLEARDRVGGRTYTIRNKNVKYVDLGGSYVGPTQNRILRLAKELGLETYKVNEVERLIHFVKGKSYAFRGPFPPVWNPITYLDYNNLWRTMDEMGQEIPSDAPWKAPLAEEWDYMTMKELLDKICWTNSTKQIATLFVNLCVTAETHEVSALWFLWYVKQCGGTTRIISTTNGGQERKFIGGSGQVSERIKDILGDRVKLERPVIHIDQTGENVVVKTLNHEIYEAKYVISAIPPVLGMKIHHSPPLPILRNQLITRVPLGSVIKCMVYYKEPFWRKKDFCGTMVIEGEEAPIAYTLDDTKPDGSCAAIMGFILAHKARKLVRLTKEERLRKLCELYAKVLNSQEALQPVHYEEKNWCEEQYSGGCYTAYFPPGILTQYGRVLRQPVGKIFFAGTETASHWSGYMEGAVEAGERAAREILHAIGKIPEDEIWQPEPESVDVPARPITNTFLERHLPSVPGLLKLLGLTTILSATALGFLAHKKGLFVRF
Procedure: The MAO inhibitory activity of the 3-arylbenzofuranone compounds was determined by the method of Holt et al.[17] with slight modifications. The crude enzyme was extracted from the liver of 200–250 g of Wistar rats according to literature methods[18]^,[19]. The crude enzyme protein content was determined by the Bradford method using a Bradford Protein Assay Kit (Beyotime). The assay was performed in 0.2 M potassium phosphate buffer pH 7.6 on 96-well plates in 240 μl total volume. The chromogenic solution containing 1 mM vanillic acid, 0.5 mM 4-aminoantipyrine, and 4 U/ml horseradish peroxidase in 0.2 M potassium phosphate buffer pH 7.6 was mixed anew for each measurement. 40 μL of enzyme solution and 40 μL of sample solution were added to a 96-well plate. The solution was then incubated at 37 °C for 20 min. 120 μL of the 4-(trifluoromethyl) benzylamine solution and 40 μL of the chromogenic solution were added subsequently and incubated at 37 °C for 90 min. The absorbance was measured at 490 nm using a microplate reader, and the inhibition rate of MAO and the IC50 value of each sample were calculated according to the formula. The control group replaced the sample solution with PBS (0.2 M, pH = 7.6), the positive control replaced the sample with the positive drug, and the blank group replaced the substrate with PBS, and each group was measured three times in parallel to average. Monoamine oxidase inhibitory effect (%) = [(AC – AB) – (AS – ASB )]/(AC – AB)×100% where AC is the absorbance of control group; AB is the absorbance of blank group; AS is the absorbance of sample group; ASB is the absorbance of sample blank group.

[2] = read-out: IC50 value AChE inhibitory activity
[3] = equine serum BChE, Ellman method, mean ± SD (n = 3), read-out: IC50 value BuChE inhibitory activity
[4] = rat liver crude enzyme, 4-(trifluoromethyl)benzylamine substrate, mean ± SD (n = 3), read-out: IC50 value MAO-B inhibitory activity

Row | SMILES | IC50 [1] | IC50 (AChE from electric eel; [2]) | IC50 (BChE from equine serum; [3]) | IC50 (MAO-B; [4]) | IC50 (AChE from electric eel; IC50 value AChE inhibitory activity) | IC50 (BChE from equine serum) | IC50 (MAO-B)
1 | O=C1O[C@H]([C@@H](O)CO)C(O)=C1O [Ascorbic acid, reference compound] | 7.69 ± 0.1 µM |  |  |  |  |  | 
2 | COc1ccc(C2C(=O)Oc3cc(O)ccc32)cc1 (centres unmarked) [Compound 1, 6-Hydroxyl-3–(4′-methoxyphenyl)-benzofuranone] | 13.3 ± 0.27 µM | 50.6 ± 3.12 µM | > 200 µM | 61.3 ± 0.79 µM |  |  | 
3 | COc1ccc(C2C(=O)Oc3ccc(O)cc32)cc1 (centres unmarked) [Compound 2, 5-Hydroxyl-3–(4′-methoxyphenyl)-benzofuranone] | > 100 µM | 4.15 ± 1.02 µM |  | 14.7 ± 0.78 µM |  |  | 
4 | COc1ccc(C2C(=O)Oc3cc(OC)ccc32)cc1 (centres unmarked) [Compound 3, 6-Methoxy-3–(4′-methoxyphenyl)-benzofuranone] | 11.8 ± 0.18 µM | 80.5 ± 3.41 µM | > 200 µM | 298 ± 5.4 µM |  |  | 
5 | COc1ccc(C2C(=O)Oc3ccc(OC)cc32)cc1 (centres unmarked) [Compound 4, 5-Methoxy-3–(4′-methoxyphenyl)-benzofuranone] | 33.1 ± 1.45 µM | < 1 µM and 0.74 µM | > 200 µM | 383 ± 5.08 µM |  |  | 
6 | COc1ccc(C2C(=O)Oc3c2ccc(O)c3O)cc1 (centres unmarked) [Compound 5, 6,7-Dihydroxy-3–(4′-methoxyphenyl)-benzofuranone] | 5.51 ± 0.2 µM |  | > 200 µM | 22.48 ± 0.22 µM |  |  | 
7 | COc1ccc(C2C(=O)Oc3cc(O)ccc32)cc1OC (centres unmarked) [Compound 6, 6-Hydroxy-3–(3′,4′-dimethoxyphenyl)-benzofuranone] |  | 24.4 ± 1.21 µM | > 200 µM | 48.6 ± 2.02 µM |  |  | 
8 | COc1ccc(C2C(=O)Oc3cc(OC)c(O)cc32)cc1 (centres unmarked) [Compound 7, 5-Hydroxy-6-methoxy-3–(4′-methoxyphenyl)-benzofuranone] | 2.62 ± 0.21 µM | < 1 µM and 0.52 µM | 32.9 ± 0.76 µM | 91.13 ± 0.7 µM |  |  | 
9 | COc1ccc(C2C(=O)Oc3c2ccc(OC)c3O)cc1 (centres unmarked) [Compound 8, 6-Methoxy-7-hydroxy-3–(4′-methoxyphenyl)-benzofuranone] | 5.96 ± 0.14 µM | 9.24 ± 0.62 µM | > 200 µM | 40.6 ± 1.92 µM |  |  | 
10 | COc1ccc2c(c1)OC(=O)C2c1ccc(OC)c(OC)c1 (centres unmarked) [Compound 9, 6-Methoxy-3–(3′,4′-dimethoxyphenyl)-benzofuranone] | 17.2 ± 0.58 µM |  |  |  | 0.35 ± 0.03 µM | > 200 µM | 354 ± 5.05 µM
11 | COc1ccc(C2C(=O)Oc3cc(OC)c(OC)cc32)cc1 (centres unmarked) [Compound 10, 5,6-Dimethoxy-3–(4′-methoxyphenyl)-benzofuranone] | 13.89 ± 0.11 µM | 28.7 ± 1.44 µM | > 200 µM | 493 ± 7.1 µM |  |  | 
